# Measured values taken from patent US6680311B1, “Cryptophycin compounds” (Eli Lilly and Company, priority 1996, dated 2004).
# Where a name gives a salt, the structure may show the parent alone. Read-outs that look alike come from different tables or passages of the source.
# Columns and labels:
# [1] = system: GC3 human colon carcinoma cells; experiment: GC3 human colon carcinoma screen (MTT); type: cell-based
# Procedure: Selected wells of a 96 well plate were seeded with GC3 human colon carcinoma cells ([…] cells in 100 μl assay medium/well) twenty four hours prior to test compound addition. Cell free assay medium was added to other select wells of the 96 well plate.
# The test compound was stored in an amber bottle prior to testing. Fresh dimethylsulfoxide stock solution (200 μg/ml) was prepared immediately prior to preparation of test sample dilutions in phosphate-buffered saline (PBS). A dilution of 1:20 dimethylsulfoxide solution in PBS was prepared such that the final concentration was 10 ug/ml. Serial 1:3 dilutions using PBS (0.5 ml previous sample of 1 ml PBS) were prepared.
# A 10 ul sample of each dilution of test compound was added in triplicate to wells of GC3 plates. The plates were incubated for 72 hours at about 37° C. A 10 μl sample of stock 3-[4,5-[…]]-2,5-diphenyltetrazolium bromide salt (“MTT” 5 mg/ml in PBS) was added to each well. The plates were incubated for about an hour at 37°. The plates were centrifuged, media was decanted from the wells and 100 μl acid-isopropanol (0.04 N HCl in isopropanol) was added to each well. The plate was read within one hour using a test wavelength of 570 nm (SpectraMax reader).
# [2] = Solubility in excipient / parenteral vehicles; type: physicochemical; conditions: Comparative solubility
# [3] = system: Aortic smooth muscle (A-10) cells; experiment: Effects on the cytoskeleton (immunofluorescence); type: cell-based, rat; conditions: 2 μM, 24 hours
# Procedure: (§1) A-10 cells are grown to near-confluency on glass coverslips in BME/10% FBS. Compounds in PBS are added to the indicated final concentrations and cells are incubated for an additional 24 hours. For the staining of microtubules and intermediate filaments, the cells are fixed with cold methanol and incubated with PBS containing 10% calf serum to block nonspecific binding sites. Cells are then incubated at 37° C. for 60 min. With either monoclonal anti-β-tubulin or with monoclonal anti-vimentin at dilutions recommended by the manufacturer. Bound primary antibodies are subsequently visualized by a 45 minute incubation with fluorescein-conjugated rabbit antimouse IgG. The coverslips are mounted on microscope slides and the fluorescence patterns are examined and photographed using a Zeiss Photomicroscope Ill equipped with epifluorescence optics for fluorescein. […] PBS containing 100 nM TRITC-phalloidin is then added and the mixture is allowed to incubate for 45 min. At 37° C. The cells are washed rapidly with PBS before the coverslips are mounted and immediately photographed as described above.
# After 24 hours, microtubules and vimentin intermediate filaments are visualized by indirect immunofluorescence and microfilaments are stained using TRITC-phalloidin. The morphological effects of each drug is examined. […]
# SKVLB1 cells = experiment: Toxicity toward SKVLB1 cells (growth inhibition); type: cell-based; conditions: Homo sapiens, inhibition of proliferation, P-glycoprotein over expressing, vinblastine-resistant sub-line
# A-10 cells [4] = experiment: Effects on taxol-stabilized microtubules; type: cell-based, rat
# Procedure: as §1
# A-10 cells are treated for 3 hours with 0 or 10 μM taxol before the addition of PBS, 100 nM vinbiastine or 10 nM cryptophycin compound. After 24 hours, microtubule organization is examined by immunofluorescence as described above. […] Similarly, microtubules pretreated with taxol are observed with cryptophycin treatment.
# A-10 cells [5] = experiment: Reversibility of microtubule depolymerization; type: cell-based, rat
# Procedure: as §1
# The cells are then washed and incubated in drug-free medium for periods of 1 hour or 24 hours. […] Cells are visualized for microtubule state after treatment with a cryptophycin compound of this invention at either 1 hour or 24 hours after removal of the cryptophycin compounds.
# [6] = in vitro cytotoxicity, Gc3 tumor cell model, read-out: Gc3 IC50
# [7] = Homo sapiens, Colon carcinoma cell, 72 h, read-out: IC50 (GC3 assay)
# [8] = Homo sapiens, Colon carcinoma cell, 72 h, read-out: GC3 IC50
compound,measurement,setting,value
"COc1ccc(C[C@H]2NC(=O)/C=C/C[C@@H]([C@H](C)[C@@H](O)[C@@H](Cl)c3ccccc3)OC(=O)[C@H](CC(C)C)OC(=O)C(C)(C)CNC2=O)cc1Cl [1′, Cryptophycin 55]",IC50,[1]; [6],0.065 nM
"COc1ccc(CC2NC(=O)C=CCC(C(C)C(OC(=O)CCC(=O)O)C(Cl)c3ccccc3)OC(=O)C(CC(C)C)OC(=O)C(C)(C)CNC2=O)cc1Cl (centres unmarked) [5′, Cryptophycin 55 Succinate]",IC50,[1]; [6],31 nM
"COc1ccc(CC2NC(=O)C=CCC(C(C)C(OC(=O)[C@H](N)Cc3ccc(OC)c(Cl)c3)C(Cl)c3ccccc3)OC(=O)C(CC(C)C)OC(=O)C(C)(C)CNC2=O)cc1Cl (some centres unmarked) [11′, Cryptophycin 55 3-(3-Chloro-4-methoxyphenyl)-(D)-alaninate Hydrochloride Salt]",IC50,[1]; [6],6.8 nM
"COc1ccc(CC2NC(=O)C=CCC(C(C)C(OC(=O)[C@@H](N)Cc3ccccc3)C(Cl)c3ccccc3)OC(=O)C(CC(C)C)OC(=O)C(C)(C)CNC2=O)cc1Cl (some centres unmarked) [13′, Cryptophycin 55 (L)-Phenylalaninate Hydrochloride Salt]",IC50,[1]; [6],7 nM
"COc1ccc(CC2NC(=O)C=CCC(C(C)C(OC(=O)[C@@H](N)Cc3c[nH]cn3)C(Cl)c3ccccc3)OC(=O)C(CC(C)C)OC(=O)C(C)(C)CNC2=O)cc1Cl (some centres unmarked) [15′, Cryptophycin 55 (L)-Histidinate Dihydrochloride Salt]",IC50,[1]; [6],60 nM
"COc1ccc(CC2NC(=O)C=CCC(C(C)C(OC(=O)C3CCCN3)C(Cl)c3ccccc3)OC(=O)C(CC(C)C)OC(=O)C(C)(C)CNC2=O)cc1Cl (centres unmarked) [17′, Cryptophycin 55 (L)-Prolinate Hydrochloride Salt]",IC50,[1]; [6],3.6 nM
"COc1ccc(CC2NC(=O)C=CCC(C(C)C(OC(=O)CN)C(Cl)c3ccccc3)OC(=O)C(CC(C)C)OC(=O)C(C)(C)CNC2=O)cc1Cl (centres unmarked) [19′, Cryptophycin 55 Glycinate Hydrochloride Salt]",IC50,[1]; [6],0.1 nM
"COc1ccc(C[C@H]2NC(=O)/C=C/C[C@@H]([C@H](C)[C@@H](Br)[C@H](O)c3ccccc3)OC(=O)[C@H](CC(C)C)OC(=O)[C@H](C)CNC2=O)cc1Cl [CRYPTOPHYCIN-138, Cryptophycin-138]",IC50,[1]; [7],30.8 nM
"COc1ccc(C[C@H]2NC(=O)/C=C/C[C@@H]([C@H](C)[C@@H](Br)C(=O)c3ccccc3)OC(=O)[C@H](CC(C)C)OC(=O)[C@H](C)CNC2=O)cc1Cl [CRYPTOPHYCIN-139, Cryptophycin-139]",IC50,[1]; [7],3.4 nM
"COc1ccc(C[C@H]2NC(=O)/C=C/C[C@@H]([C@H](C)[C@@H](Cl)[C@@H](O)c3ccccc3)OC(=O)[C@H](CC(C)C)OC(=O)[C@H](C)CNC2=O)cc1Cl [CRYPTOPHYCIN-140, Cryptophycin-140]",IC50,[1]; [7],863 nM
"COc1ccc(C[C@H]2NC(=O)/C=C/C[C@@H]([C@H](C)[C@@H](Cl)[C@H](O)c3ccccc3)OC(=O)[C@H](CC(C)C)OC(=O)[C@H](C)CNC2=O)cc1Cl [CRYPTOPHYCIN-141, Cryptophycin-141]",IC50,[1]; [7],795 nM
COc1ccc(C[C@H]2NC(=O)/C=C/C[C@@H]([C@H](C)[C@H](Cl)[C@H](O)c3ccccc3)OC(=O)[C@H](CC(C)C)OC(=O)[C@H](C)CNC2=O)cc1Cl [CRYPTOPHYCIN-142],IC50,[1]; [7],1.1 nM
COc1ccc(C[C@H]2NC(=O)/C=C/C[C@@H]([C@H](C)[C@H](Cl)[C@@H](O)c3ccccc3)OC(=O)[C@H](CC(C)C)OC(=O)[C@H](C)CNC2=O)cc1Cl [CRYPTOPHYCIN-143],IC50,[1]; [7],850 nM
"COc1ccc(C[C@H]2NC(=O)/C=C/C[C@@H]([C@H](C)[C@H](Br)[C@H](O)c3ccccc3)OC(=O)[C@H](CC(C)C)OC(=O)[C@H](C)CNC2=O)cc1Cl [CRYPTOPHYCIN-145, Cryptophycin-145]",IC50,[1]; [7],0.015 nM
"COc1ccc(C[C@H]2NC(=O)/C=C/C[C@@H]([C@H](C)[C@@H](O)[C@@H](Cl)c3ccccc3)OC(=O)[C@H](CC(C)C)OC(=O)C(C)(C)CNC2=O)cc1Cl [Compound 1, cryptophycin 55]",IC50,"[1]; Homo sapiens, Colon carcinoma cell, in vitro cytotoxicity, 72 hours, MTT, read-out: GC3 IC50",0.065 nM
same,solubility,"[2]; aqueous with cosolvent or surfactant or cyclodextrin, vehicle 1",< 1 µg/mL
same,solubility,"[2]; aqueous with cosolvent or surfactant or cyclodextrin, vehicle 2",2.6 µg/mL
same,solubility,"[2]; aqueous with cosolvent or surfactant or cyclodextrin, vehicle 3",311 µg/mL
same,solubility,"[2]; aqueous with cosolvent or surfactant or cyclodextrin, vehicle 4",361 µg/mL
same,solubility,"[2]; pH 4, aqueous buffer, vehicle 5",< 1 µg/mL
"COc1ccc(C[C@H]2NC(=O)/C=C/C[C@@H]([C@H](C)[C@@H](OC(C)=O)[C@@H](Cl)c3ccccc3)OC(=O)[C@H](CC(C)C)OC(=O)C(C)(C)CNC2=O)cc1Cl [Compound 3, Cryptophycin 55 Acetate]",IC50,[1]; [8],83 nM
"COc1ccc(C[C@H]2NC(=O)/C=C/C[C@@H]([C@H](C)[C@@H](OC(=O)CCC(=O)O)[C@@H](Cl)c3ccccc3)OC(=O)[C@H](CC(C)C)OC(=O)C(C)(C)CNC2=O)cc1Cl [Compound 4, Cryptophycin 55 Succinate]",IC50,[1]; [8],31 nM
"COc1ccc(C[C@H]2NC(=O)/C=C/C[C@@H]([C@H](C)[C@@H](OC(=O)Cc3ccccc3OP(=O)(O)O)[C@@H](Cl)c3ccccc3)OC(=O)[C@H](CC(C)C)OC(=O)C(C)(C)CNC2=O)cc1Cl [Compound 6, Cryptophycin 55 (2′-Phosphatyl)phenylacetate di-Sodium Salt]",IC50,[1]; [8],3.7 nM
"C=C1[C@@H](C)[C@H]2[C@H](Cc3ccccc3)NC(=O)[C@]23OC(=O)/C=C/[C@H](O)CCC[C@@H](C)C/C=C/[C@H]3[C@@H]1O [Cytochalasin B, cytochalasin B]",effect on microfilaments,[3]; TRITC-phalloidin staining,complete depolymerization of microfilaments
same,effect on distribution of microtubules or intermediate filaments,[3]; indirect immunofluorescence,did not affect
"CC(=O)O[C@H]1C(=O)[C@@]2(C)[C@H]([C@H](OC(=O)c3ccccc3)[C@]3(O)C[C@H](OC(=O)[C@H](O)[C@@H](NC(=O)c4ccccc4)c4ccccc4)C(C)=C1C3(C)C)[C@]1(OC(C)=O)CO[C@@H]1C[C@@H]2O [Taxol, taxol]",IC50,SKVLB1 cells,8000 nM
same,microtubule organization in taxol-treated cells,"A-10 cells [4]; 10 μM taxol, compared with control cells",extensively bundled
"CC[C@]1(O)C[C@@H]2CN(CCc3c([nH]c4ccccc34)[C@@](C(=O)OC)(c3cc4c(cc3OC)N(C)[C@H]3[C@@](O)(C(=O)OC)[C@H](OC(C)=O)[C@]5(CC)C=CCN6CC[C@]43[C@@H]65)C2)C1 [Vinblastine, vinblastine]",IC50,SKVLB1 cells,4200 nM
same,microtubule repolymerization 1 hour after removal of drug,"A-10 cells [5]; 100 nM for 24 hr, washed, drug-free medium 1 hour",significant levels of microtubules
same,microtubule repolymerization 24 hours after removal of drug,"A-10 cells [5]; 100 nM for 24 hr, washed, drug-free medium 24 hours",complete morphological recovery
same,microtubule depolymerization,"A-10 cells [5]; 100 nM, 24 hr",complete microtubule depolymerization
same,microtubule depolymerization after taxol pretreatment,A-10 cells [4]; 100 nM vinblastine after 3 hours pretreatment with 10 μM taxol,prevented microtubule depolymerization
same,microtubule depolymerization,"A-10 cells [4]; 100 nM, 24 hours, non-pretreated cells",complete depolymerization of microtubules
Cryptophycin 55 (2′-phosphatyl)phenylacetate di-sodium Salt [7′],IC50,[1]; [6],3.7 nM
Cryptophycin 55 (D)-alaninate Hydrochloride Salt [30′],IC50,[1]; [6],30 nM
Cryptophycin 55 Acetate [3′],IC50,[1]; [6],83 nM
Cryptophycin 55 β-Alaninate Hydrochloride Salt [21′],IC50,[1]; [6],21 nM
Cryptophycin 55 γ-Aminobutyrate Hydrochloride Salt [25′],IC50,[1]; [6],230 nM
